Assay results as given in ChEMBL document CHEMBL3046636, “Synthesis and anti-juvenile hormone activity of ethyl 4-(2-aryloxyhexyloxy)benzoates” (2006).
Active and inactive are the calls of the source. No cut-off for these calls is given here.

What was measured:
Bombyx mori [1] = experiment: Induction of precocious metamorphosis in 24 hr old third-instar larvae of Bombyx mori assessed as precocious metamorphosis at 10 ug/larva topically by antijuvenile hormone activity assay; assay type: functional
Bombyx mori [2] = experiment: Induction of precocious metamorphosis in newly molted fourth-instar larvae of Bombyx mori assessed as precocious metamorphosis measured after topical treatment; assay type: functional, organism-based
Bombyx mori [3] = experiment: Induction of precocious metamorphosis in 24 hr old third-instar larvae of Bombyx mori assessed as precocious metamorphosis at 1 ug/larva topically by antijuvenile hormone activity assay; assay type: functional
Bombyx mori [4] = experiment: Induction of precocious metamorphosis in 24 hr old third-instar larvae of Bombyx mori assessed as precocious metamorphosis at 40 ug/larva topically by antijuvenile hormone activity assay; assay type: functional
Bombyx mori [5] = experiment: Induction of precocious metamorphosis in 24 hr old third-instar larvae of Bombyx mori assessed as precocious metamorphosis at 50 ppm dietary administration by antijuvenile hormone activity assay; assay type: functional
Bombyx mori [6] = experiment: Induction of precocious metamorphosis in 24 hr old third-instar larvae of Bombyx mori assessed as precocious metamorphosis at 200 ppm dietary administration by antijuvenile hormone activity assay; assay type: functional

SMILES | Activity (Bombyx mori [1]) [%] | Activity (Bombyx mori [2]) | Activity (Bombyx mori [3]) [%] | Activity (Bombyx mori [4]) [%] | Activity (Bombyx mori [5]) [%] | Activity (Bombyx mori [6]) [%]
CCCCC(COc1ccc(C(=O)OCC)cc1)Oc1cccnc1 (stereo not given) | 47 | inactive | 10 | 57 |  | 
CCCCC(COc1ccc(C(=O)OCC)cc1)Oc1cccc(Cl)c1 (stereo not given) | 45 | inactive | 25 | 75 |  | 
CCCCC(COc1ccc(C(=O)OCC)cc1)Oc1ccccc1Cl (stereo not given) | 0 | inactive | 0 |  |  | 
CCCCC(COc1ccc(C(=O)O)cc1)Oc1ccccc1 (stereo not given) |  |  |  |  | 0 | 0
CCCCC(COc1ccc(C(=O)OCC)cc1)Oc1cccc(C)c1 (stereo not given) | 5 | inactive | 0 | 55 |  | 
CCCCC(COc1ccc(C(=O)OCC)cc1)Oc1ccc(C)nc1 (stereo not given) | 20 | inactive | 20 | 75 |  | 
CCCCC(COc1ccc(C(=O)OCC)cc1)Oc1ccccc1 (stereo not given) | 66 | inactive | 32 | 70 | 25 | 75
CCCCC(COc1ccc(C(=O)OCC)cc1)Oc1ccc(Cl)cc1 (stereo not given) | 30 | inactive | 0 |  |  | 
CCCCC(COc1ccc(C(=O)OCC)cc1)Oc1ccncc1 (stereo not given) | 0 | inactive | 0 |  |  | 
CCCCC(COc1ccc(C(=O)OCC)cc1)Oc1ccccc1C (stereo not given) | 10 | inactive | 0 |  |  | 
CCCCC(COc1ccc(C(=O)OCC)cc1)Oc1ccc(C)cc1 (stereo not given) | 45 | inactive | 5 | 58 |  | 
